Columns and labels:
[1] = Formation of 1,5-cz-[M(Lig)] from Lig and M^III ions (metal dependent click-zip) (Charts 4, 5); assay type: physicochemical; conditions: MOPS/NaOH buffer pH 7.0; for conversion to 1,5-cz-[M(Lig)], Sc^III / conversion to 1,5-cz-[M(Lig)], Y^III: TD728, TD827 in 50% i-PrOH; for conversion to 1,5-cz-[M(Lig)], Y^III: TD714 sum of two diastereoisomers
[2] = Formation of 1,5-cz-[Ln(Lig)] from Lig and Ln^III ions (metal dependent click-zip), MOPS/NaOH buffer pH 7.0, analytical HPLC (Charts 1, 2); conditions: MOPS/NaOH buffer pH 7.0

Compound: CC(C)(C#Cc1cccc(CN2CCN(CC(=O)O)CCN(Cc3cccc(CN=[N+]=[N-])n3)CCN(CC(=O)O)CC2)n1)NC(=O)OC(C)(C)C [TD1105]
- conversion to 1,5-cz-[Ln(Lig)] with hydrolysed group in the side chain, Sc^III ([1]; 1 week at 80° C.): 60%
- conversion to 1,5-cz-[Ln(Lig)] with hydrolysed group in the side chain, Y^III ([1]; 1 week at 80° C.): 87%
- conversion to 1,5-cz-[M(Lig)], Sc^III ([1]; 1 week at 80° C.): 0%
- conversion to 1,5-cz-[M(Lig)], Y^III ([1]; 1 week at 80° C.): 0%
- conversion to 1,5-cz-[Ln(Lig)] with hydrolysed group in the side chain, Sc^III ([1]; 1 hour at 80° C.): 0%
- conversion to 1,5-cz-[Ln(Lig)] with hydrolysed group in the side chain, Y^III ([1]; 1 hour at 80° C.): 1%
- conversion to 1,5-cz-[M(Lig)], Sc^III ([1]; 1 hour at 80° C.): 0%
- conversion to 1,5-cz-[M(Lig)], Y^III ([1]; 1 hour at 80° C.): 2%
- conversion to 1,5-cz-[Ln(Lig)] with hydrolysed group in the side chain, Ce^III ([2]; after 1 week at 80° C.): 8%
- conversion to 1,5-cz-[Ln(Lig)], Ce^III ([2]; after 1 week at 80° C.): 0%
- conversion to 1,5-cz-[Ln(Lig)] with hydrolysed group in the side chain, Ce^III ([2]; after 1 hour at 80° C.): 0%
- conversion to 1,5-cz-[Ln(Lig)], Ce^III ([2]; after 1 hour at 80° C.): 0%
- conversion to 1,5-cz-[Ln(Lig)] with hydrolysed group in the side chain, Dy^III ([2]; after 1 week at 80° C.): 82%
- conversion to 1,5-cz-[Ln(Lig)], Dy^III ([2]; after 1 week at 80° C.): 0%
- conversion to 1,5-cz-[Ln(Lig)] with hydrolysed group in the side chain, Dy^III ([2]; after 1 hour at 80° C.): 0%
- conversion to 1,5-cz-[Ln(Lig)], Dy^III ([2]; after 1 hour at 80° C.): 2%
- conversion to 1,5-cz-[Ln(Lig)] with hydrolysed group in the side chain, Er^III ([2]; after 1 week at 80° C.): 92%
- conversion to 1,5-cz-[Ln(Lig)], Er^III ([2]; after 1 week at 80° C.): 1%
- conversion to 1,5-cz-[Ln(Lig)] with hydrolysed group in the side chain, Er^III ([2]; after 1 hour at 80° C.): 2%
- conversion to 1,5-cz-[Ln(Lig)], Er^III ([2]; after 1 hour at 80° C.): 4%
- conversion to 1,5-cz-[Ln(Lig)] with hydrolysed group in the side chain, Eu^III ([2]; after 1 week at 80° C.): 49%
- conversion to 1,5-cz-[Ln(Lig)], Eu^III ([2]; after 1 week at 80° C.): 1%
- conversion to 1,5-cz-[Ln(Lig)] with hydrolysed group in the side chain, Eu^III ([2]; after 1 hour at 80° C.): 0%
- conversion to 1,5-cz-[Ln(Lig)], Eu^III ([2]; after 1 hour at 80° C.): 1%
- conversion to 1,5-cz-[Ln(Lig)] with hydrolysed group in the side chain, Gd^III ([2]; after 1 week at 80° C.): 57%
- conversion to 1,5-cz-[Ln(Lig)], Gd^III ([2]; after 1 week at 80° C.): 2%
- conversion to 1,5-cz-[Ln(Lig)] with hydrolysed group in the side chain, Gd^III ([2]; after 1 hour at 80° C.): 0%
- conversion to 1,5-cz-[Ln(Lig)], Gd^III ([2]; after 1 hour at 80° C.): 1%
- conversion to 1,5-cz-[Ln(Lig)] with hydrolysed group in the side chain, Ho^III ([2]; after 1 week at 80° C.): 87%
- conversion to 1,5-cz-[Ln(Lig)], Ho^III ([2]; after 1 week at 80° C.): 1%
- conversion to 1,5-cz-[Ln(Lig)] with hydrolysed group in the side chain, Ho^III ([2]; after 1 hour at 80° C.): 1%
- conversion to 1,5-cz-[Ln(Lig)], Ho^III ([2]; after 1 hour at 80° C.): 3%
- conversion to 1,5-cz-[Ln(Lig)] with hydrolysed group in the side chain, La^III ([2]; after 1 week at 80° C.): 11%
- conversion to 1,5-cz-[Ln(Lig)], La^III ([2]; after 1 week at 80° C.): 0%
- conversion to 1,5-cz-[Ln(Lig)] with hydrolysed group in the side chain, La^III ([2]; after 1 hour at 80° C.): 0%
- conversion to 1,5-cz-[Ln(Lig)], La^III ([2]; after 1 hour at 80° C.): 0%
- conversion to 1,5-cz-[Ln(Lig)] with hydrolysed group in the side chain, Lu^III ([2]; after 1 week at 80° C.): 98%
- conversion to 1,5-cz-[Ln(Lig)], Lu^III ([2]; after 1 week at 80° C.): 1%
- conversion to 1,5-cz-[Ln(Lig)] with hydrolysed group in the side chain, Lu^III ([2]; after 1 hour at 80° C.): 9%
- conversion to 1,5-cz-[Ln(Lig)], Lu^III ([2]; after 1 hour at 80° C.): 8%
- conversion to 1,5-cz-[Ln(Lig)] with hydrolysed group in the side chain, Nd^III ([2]; after 1 week at 80° C.): 23%
- conversion to 1,5-cz-[Ln(Lig)], Nd^III ([2]; after 1 week at 80° C.): 0%
- conversion to 1,5-cz-[Ln(Lig)] with hydrolysed group in the side chain, Nd^III ([2]; after 1 hour at 80° C.): 0%
- conversion to 1,5-cz-[Ln(Lig)], Nd^III ([2]; after 1 hour at 80° C.): 1%
- conversion to 1,5-cz-[Ln(Lig)] with hydrolysed group in the side chain, Pr^III ([2]; after 1 week at 80° C.): 21%
- conversion to 1,5-cz-[Ln(Lig)], Pr^III ([2]; after 1 week at 80° C.): 0%
- conversion to 1,5-cz-[Ln(Lig)] with hydrolysed group in the side chain, Pr^III ([2]; after 1 hour at 80° C.): 0%
- conversion to 1,5-cz-[Ln(Lig)], Pr^III ([2]; after 1 hour at 80° C.): 0%
- conversion to 1,5-cz-[Ln(Lig)] with hydrolysed group in the side chain, Sm^III ([2]; after 1 week at 80° C.): 44%
- conversion to 1,5-cz-[Ln(Lig)], Sm^III ([2]; after 1 week at 80° C.): 1%
- conversion to 1,5-cz-[Ln(Lig)] with hydrolysed group in the side chain, Sm^III ([2]; after 1 hour at 80° C.): 0%
- conversion to 1,5-cz-[Ln(Lig)], Sm^III ([2]; after 1 hour at 80° C.): 1%
- conversion to 1,5-cz-[Ln(Lig)] with hydrolysed group in the side chain, Tb^III ([2]; after 1 week at 80° C.): 74%
- conversion to 1,5-cz-[Ln(Lig)], Tb^III ([2]; after 1 week at 80° C.): 1%
- conversion to 1,5-cz-[Ln(Lig)] with hydrolysed group in the side chain, Tb^III ([2]; after 1 hour at 80° C.): 0%
- conversion to 1,5-cz-[Ln(Lig)], Tb^III ([2]; after 1 hour at 80° C.): 2%
- conversion to 1,5-cz-[Ln(Lig)] with hydrolysed group in the side chain, Tm^III ([2]; after 1 week at 80° C.): 94%
- conversion to 1,5-cz-[Ln(Lig)], Tm^III ([2]; after 1 week at 80° C.): 1%
- conversion to 1,5-cz-[Ln(Lig)] with hydrolysed group in the side chain, Tm^III ([2]; after 1 hour at 80° C.): 3%
- conversion to 1,5-cz-[Ln(Lig)], Tm^III ([2]; after 1 hour at 80° C.): 5%
- conversion to 1,5-cz-[Ln(Lig)] with hydrolysed group in the side chain, Yb^III ([2]; after 1 week at 80° C.): 97%
- conversion to 1,5-cz-[Ln(Lig)], Yb^III ([2]; after 1 week at 80° C.): 1%
- conversion to 1,5-cz-[Ln(Lig)] with hydrolysed group in the side chain, Yb^III ([2]; after 1 hour at 80° C.): 5%
- conversion to 1,5-cz-[Ln(Lig)], Yb^III ([2]; after 1 hour at 80° C.): 7%

Compound: [N-]=[N+]=NCc1cccc(CN2CCN(CC(=O)O)CCN(Cc3cccc(C#CC4CCNCC4)n3)CCN(CC(=O)O)CC2)n1 [TD1127]
- conversion to 1,5-cz-[M(Lig)], Sc^III ([1]; 1 week at 80° C.): 29%
- conversion to 1,5-cz-[M(Lig)], Y^III ([1]; 1 week at 80° C.): 83%
- conversion to 1,5-cz-[M(Lig)], Sc^III ([1]; 1 hour at 80° C.): 0%
- conversion to 1,5-cz-[M(Lig)], Y^III ([1]; 1 hour at 80° C.): 2%
- conversion to 1,5-cz-[Ln(Lig)], Ce^III ([2]; after 1 week at 80° C.): 7%
- conversion to 1,5-cz-[Ln(Lig)], Ce^III ([2]; after 1 hour at 80° C.): 0%
- conversion to 1,5-cz-[Ln(Lig)], Dy^III ([2]; after 1 week at 80° C.): 80%
- conversion to 1,5-cz-[Ln(Lig)], Dy^III ([2]; after 1 hour at 80° C.): 2%
- conversion to 1,5-cz-[Ln(Lig)], Er^III ([2]; after 1 week at 80° C.): 91%
- conversion to 1,5-cz-[Ln(Lig)], Er^III ([2]; after 1 hour at 80° C.): 4%
- conversion to 1,5-cz-[Ln(Lig)], Eu^III ([2]; after 1 week at 80° C.): 53%
- conversion to 1,5-cz-[Ln(Lig)], Eu^III ([2]; after 1 hour at 80° C.): 1%
- conversion to 1,5-cz-[Ln(Lig)], Gd^III ([2]; after 1 week at 80° C.): 56%
- conversion to 1,5-cz-[Ln(Lig)], Gd^III ([2]; after 1 hour at 80° C.): 1%
- conversion to 1,5-cz-[Ln(Lig)], Ho^III ([2]; after 1 week at 80° C.): 86%
- conversion to 1,5-cz-[Ln(Lig)], Ho^III ([2]; after 1 hour at 80° C.): 3%
- conversion to 1,5-cz-[Ln(Lig)], La^III ([2]; after 1 week at 80° C.): 18%
- conversion to 1,5-cz-[Ln(Lig)], La^III ([2]; after 1 hour at 80° C.): 0%
- conversion to 1,5-cz-[Ln(Lig)], Lu^III ([2]; after 1 week at 80° C.): 97%
- conversion to 1,5-cz-[Ln(Lig)], Lu^III ([2]; after 1 hour at 80° C.): 13%
- conversion to 1,5-cz-[Ln(Lig)], Nd^III ([2]; after 1 week at 80° C.): 25%
- conversion to 1,5-cz-[Ln(Lig)], Nd^III ([2]; after 1 hour at 80° C.): 0%
- conversion to 1,5-cz-[Ln(Lig)], Pr^III ([2]; after 1 week at 80° C.): 15%
- conversion to 1,5-cz-[Ln(Lig)], Pr^III ([2]; after 1 hour at 80° C.): 0%
- conversion to 1,5-cz-[Ln(Lig)], Sm^III ([2]; after 1 week at 80° C.): 46%
- conversion to 1,5-cz-[Ln(Lig)], Sm^III ([2]; after 1 hour at 80° C.): 0%
- conversion to 1,5-cz-[Ln(Lig)], Tb^III ([2]; after 1 week at 80° C.): 72%
- conversion to 1,5-cz-[Ln(Lig)], Tb^III ([2]; after 1 hour at 80° C.): 1%
- conversion to 1,5-cz-[Ln(Lig)], Tm^III ([2]; after 1 week at 80° C.): 93%
- conversion to 1,5-cz-[Ln(Lig)], Tm^III ([2]; after 1 hour at 80° C.): 7%
- conversion to 1,5-cz-[Ln(Lig)], Yb^III ([2]; after 1 week at 80° C.): 95%
- conversion to 1,5-cz-[Ln(Lig)], Yb^III ([2]; after 1 hour at 80° C.): 10%

Reference: US20250147039A1, “Compounds for complexation of rare earth elements and/or s-, p-, d- block metals, their coordination compounds, peptide conjugates, method of their preparation and use thereof” (USTAV ORGANICKE CHEMIE A BIOCHEMIE AV CR V.V.I., priority 2021, published 2025)
